Assay results: patent publication US20240425478A1, “CYCLOPENTYLPYRAZOLE CDK2 INHIBITORS” (Genentech, Inc., priority 2021, published 2024)
pIC50, pKi: −log10 of the molar value. Where two headings read alike, the source gives them in different places.

Assays:
[1] = tested on: OVISE (JCRB1043, CCNE1-amplified); assay: OVISE EdU incorporation cell proliferation assay (CDK2-dependent); assay type: cell-based; details: for pIC50 / FS SKOV-3/OVISE / FS p-H3/OVISE: Table O; for pIC50: cellular assay, read-out: CDK2 OVISE IC50; for FS SKOV-3/OVISE / FS p-H3/OVISE: fold selectivity; for FS SKOV-3/OVISE: cellular SKOV-3 IC50 over OVISE IC50; for FS p-H3/OVISE: cellular p-H3 IC50 over OVISE IC50; for CDK2 OVISE IC50 fold change in potency versus Comparator D: Table R; for CDK2 OVISE IC50 fold change in potency versus Comparator D / CDK2 OVISE IC50 fold change in potency versus Comparator E: in brackets after OVISE IC50; for CDK2 OVISE IC50 fold change in potency versus Comparator E: Table S
Outline: (§1)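 Cells in RPMI/10% FBS dosed with compound (0.5% DMSO final) for 16 h at 37 °C, 5% CO2, then EdU 0.5 μM final for 8 h before fixation and imaging. IC50 from 4-parameter logistic fit of EdU-positive cell fraction versus dose.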

[2] = molecular target: T1, Cyclin Dependent Kinase 4/Cyclin D3 (CDK4-cycD3) (Homo sapiens, UniProt P11802); assay: CDK4-cycD3 TR-FRET (LANCE) enzyme assay; assay type: biochemical; details: for pKi: Table O, enzymatic assay; for FS CDK4/CDK2: fold selectivity, enzymatic Ki ratio
T1 construct: purchased Carna Biosciences 04-105
T1 sequence (P11802 whole entry): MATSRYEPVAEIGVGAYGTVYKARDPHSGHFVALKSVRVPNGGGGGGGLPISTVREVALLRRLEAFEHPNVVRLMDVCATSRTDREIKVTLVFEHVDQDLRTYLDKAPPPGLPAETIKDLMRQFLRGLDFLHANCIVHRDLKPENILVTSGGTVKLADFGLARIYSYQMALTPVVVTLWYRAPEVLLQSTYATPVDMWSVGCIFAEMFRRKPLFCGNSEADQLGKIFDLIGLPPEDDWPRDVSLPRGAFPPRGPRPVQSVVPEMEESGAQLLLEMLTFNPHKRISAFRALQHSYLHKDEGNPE
T1 sequence (P30281 whole entry partner): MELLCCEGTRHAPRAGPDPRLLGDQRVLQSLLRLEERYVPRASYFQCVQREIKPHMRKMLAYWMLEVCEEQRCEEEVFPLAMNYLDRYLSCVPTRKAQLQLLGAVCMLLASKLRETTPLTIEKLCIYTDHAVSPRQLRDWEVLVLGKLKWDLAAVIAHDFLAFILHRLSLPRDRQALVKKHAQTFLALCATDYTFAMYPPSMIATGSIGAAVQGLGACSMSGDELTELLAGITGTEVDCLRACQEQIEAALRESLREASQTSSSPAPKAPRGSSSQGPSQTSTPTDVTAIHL
Outline: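 Compound dose responses pre-incubated 30 min with enzyme mix in 50 mM HEPES pH 7.5, 10 mM MgCl2, 2 mM TCEP, 0.05% BGG, 0.01% Brij 35. Reaction quenched with EDTA (15 mM final); Eu-anti-phospho-4E-BP1 TR-FRET detection, acceptor/donor ratio. Ki derived by Morrison equation.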

[3] = molecular target: T2, Cyclin Dependent Kinase 1/Cyclin A2 (CDK1-cycA2) (Homo sapiens, UniProt P06493); assay: CDK1-cycA2 TR-FRET (Lance) enzyme assay; assay type: biochemical; details: for pKi: Table O, enzymatic assay; for FS CDK1/CDK2: fold selectivity, enzymatic Ki ratio
T2 construct: purchased ProQinase 0134-0054-1
T2 sequence (P06493 whole entry): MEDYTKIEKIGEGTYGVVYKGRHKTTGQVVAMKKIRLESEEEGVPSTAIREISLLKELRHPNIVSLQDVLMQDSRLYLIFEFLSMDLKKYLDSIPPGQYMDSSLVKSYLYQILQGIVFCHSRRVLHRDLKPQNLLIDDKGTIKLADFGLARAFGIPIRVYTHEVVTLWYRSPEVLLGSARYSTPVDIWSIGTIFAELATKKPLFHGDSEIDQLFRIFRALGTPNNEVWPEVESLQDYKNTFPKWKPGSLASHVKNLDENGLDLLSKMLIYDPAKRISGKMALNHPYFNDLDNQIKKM
T2 sequence (P20248 whole entry partner): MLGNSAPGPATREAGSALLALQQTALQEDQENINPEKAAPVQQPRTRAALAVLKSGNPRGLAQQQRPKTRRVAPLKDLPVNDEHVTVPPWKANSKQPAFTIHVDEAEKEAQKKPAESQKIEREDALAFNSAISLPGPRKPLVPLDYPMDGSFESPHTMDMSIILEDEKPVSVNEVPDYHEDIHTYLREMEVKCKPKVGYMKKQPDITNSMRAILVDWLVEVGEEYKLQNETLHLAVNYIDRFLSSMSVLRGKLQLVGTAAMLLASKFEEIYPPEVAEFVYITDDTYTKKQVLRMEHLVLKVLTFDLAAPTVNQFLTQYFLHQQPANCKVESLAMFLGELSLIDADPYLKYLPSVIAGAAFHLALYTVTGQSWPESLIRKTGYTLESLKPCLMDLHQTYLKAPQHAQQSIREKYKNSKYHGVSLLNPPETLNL
Outline: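 Human CDK1/cyclin A2 pre-incubated 30 min with compound dose responses in 50 mM HEPES pH 7.5, 10 mM MgCl2, 2 mM TCEP, 0.05% BGG, 0.01% Brij 35. Reaction quenched with EDTA (15 mM final); TR-FRET readout using Eu-anti-phospho-4E-BP1, acceptor/donor ratio. Inhibition constants from Morrison equation.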

HCT116 cells = assay: p-H3 HCT-116 mitotic release cell proliferation assay (cellular CDK1); assay type: cell-based; details: Homo sapiens, HCT-116; Table O, cellular assay; read-out: CDK1 p-H3 IC50
Outline: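 HCT116 cells arrested 16 h with 500 nM nocodazole, then exposed to compound for 4 h at 37 °C (0.1% DMSO). Lysates read by HTRF/FRET with donor and acceptor phospho-Histone H3 (Ser10) antibodies, ≥2 h at room temperature; CDK1 inhibition seen as loss of p-H3 on mitotic release.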

[4] = molecular target: T3, Cyclin Dependent Kinase 2/Cyclin E1 (CDK2-cycE1) (Homo sapiens, UniProt P24941); assay: CDK2-cycE1 TR-FRET (LANCE) enzyme assay; assay type: biochemical; details: for pKi: enzymatic assay, read-out: CDK2 Ki; for FS CDK1/CDK2 / FS CDK4/CDK2: fold selectivity; for FS CDK1/CDK2: enzymatic CDK1 Ki over CDK2 Ki; for FS CDK4/CDK2: enzymatic CDK4 Ki over CDK2 Ki; for CDK2 Ki fold change in potency versus Comparator D / CDK2 Ki fold change in potency versus Comparator E: in brackets after CDK2 Ki
T3 construct: purchased ProQinase 0050-0055-1
Outline: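 Compound dose responses pre-incubated 30 min with CDK2-cycE1 in 50 mM HEPES pH 7.5, 10 mM MgCl2, 2 mM TCEP, 0.05% BGG, 0.01% Brij 35. Reaction quenched with EDTA (15 mM final), phospho-MBP detected by Eu-anti-phospho-MBP TR-FRET (acceptor/donor ratio). Inhibition constants from Morrison equation.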

SKOV-3 (ATCC HTB-77) = assay: SKOV-3 EdU incorporation cell proliferation assay (CDK4/6-dependent); assay type: cell-based; details: for pIC50: Homo sapiens, cellular assay, read-out: CDK4/6 SKOV-3 IC50; for selectivity for CDK2 over CDK4 compared with Comparator E: SKOV-3/OVISE fold-selectivity cellular assay data; for FS SKOV-3/OVISE: fold selectivity, cellular IC50 ratio
Outline: as §1

CC(C)(C)NC(=O)O[C@@H]1CC[C@H](c2cc(Nc3ccncc3)n[nH]2)C1 [Example 4H, (1R,3S)-3-(3-(pyridin-4-ylamino)-1H-pyrazol-5-yl)cyclopentyl tert-butylcarbamate]
CDK2 cell potency compared with Comparator E ([1]; CDK2 OVISE cellular assay data): more potent CDK2 cell inhibitors compared to Comparator E
pIC50 [1]: 7.42
FS SKOV-3/OVISE [1]: 25
FS p-H3/OVISE [1]: 1.4
CDK2 OVISE IC50 fold change in potency versus Comparator D [1]: 100 fold
CDK2 OVISE IC50 fold change in potency versus Comparator E [1]: 4.4 fold
pKi [2]: 6.96
FS CDK4/CDK2 increased over Comparator D, (+) sign ([2]; Table R): (+)
FS CDK4/CDK2 ([2]; Table R): 55
FS CDK4/CDK2 increased over Comparator E, (+) sign ([2]; Table S): (+)
FS CDK4/CDK2 ([2]; Table S): 55
pKi [3]: 6.74
FS CDK1/CDK2 increased over Comparator D, (+) sign ([3]; Table R): (+)
FS CDK1/CDK2 ([3]; Table R): 90
FS CDK1/CDK2 increased over Comparator E, (+) sign ([3]; Table S): (+)
FS CDK1/CDK2 ([3]; Table S): 90
pIC50 (HCT116 cells): 7.27
pKi ([4]; Table O): 8.70
FS CDK1/CDK2 ([4]; Table O): 90
FS CDK4/CDK2 ([4]; Table O): 55
pKi ([4]; Table R): 8.70
CDK2 Ki fold change in potency versus Comparator D ([4]; Table R): 1.4 fold
pKi ([4]; Table S): 8.70
CDK2 Ki fold change in potency versus Comparator E ([4]; Table S): 0.3 fold
pIC50 (SKOV-3 (ATCC HTB-77); SK-OV-3, Table O): 6.02
selectivity for CDK2 over CDK4 compared with Comparator E (SKOV-3 (ATCC HTB-77)): increase in selectivity for CDK2 over CDK4
FS SKOV-3/OVISE increased over Comparator D, (+) sign (SKOV-3 (ATCC HTB-77); Table R): (+)
FS SKOV-3/OVISE (SKOV-3 (ATCC HTB-77); Table R): 25
FS SKOV-3/OVISE increased over Comparator E, (+) sign (SKOV-3 (ATCC HTB-77); Table S): (+)
FS SKOV-3/OVISE (SKOV-3 (ATCC HTB-77); Table S): 25

CC(C)(C)NC(=O)O[C@@H]1CC[C@H](c2cc(Nc3cccnn3)n[nH]2)C1 [Example 4I, (1R,3S)-3-(3-(pyridazin-3-ylamino)-1H-pyrazol-5-yl)cyclopentyl tert-butylcarbamate]
pIC50 [1]: 6.62
FS SKOV-3/OVISE [1]: 20
FS p-H3/OVISE [1]: 0.63
CDK2 OVISE IC50 fold change in potency versus Comparator D [1]: 16 fold
CDK2 OVISE IC50 fold change in potency versus Comparator E [1]: 0.7 fold
pKi [2]: 7.48
FS CDK4/CDK2 increased over Comparator D, (+) sign ([2]; Table R): (+)
FS CDK4/CDK2 ([2]; Table R): 13
FS CDK4/CDK2 ([2]; Table S): 13
pKi [3]: 7.35
FS CDK1/CDK2 ([3]; Table R): 18
FS CDK1/CDK2 ([3]; Table S): 18
pIC50 (HCT116 cells): 6.82
pKi ([4]; Table O): 8.60
FS CDK1/CDK2 ([4]; Table O): 18
FS CDK4/CDK2 ([4]; Table O): 13
pKi ([4]; Table R): 8.60
CDK2 Ki fold change in potency versus Comparator D ([4]; Table R): 1.1 fold
pKi ([4]; Table S): 8.60
CDK2 Ki fold change in potency versus Comparator E ([4]; Table S): 0.2 fold
pIC50 (SKOV-3 (ATCC HTB-77); SK-OV-3, Table O): 5.31
selectivity for CDK2 over CDK4 compared with Comparator E (SKOV-3 (ATCC HTB-77)): increase in selectivity for CDK2 over CDK4
FS SKOV-3/OVISE increased over Comparator D, (+) sign (SKOV-3 (ATCC HTB-77); Table R): (+)
FS SKOV-3/OVISE (SKOV-3 (ATCC HTB-77); Table R): 20
FS SKOV-3/OVISE increased over Comparator E, (+) sign (SKOV-3 (ATCC HTB-77); Table S): (+)
FS SKOV-3/OVISE (SKOV-3 (ATCC HTB-77); Table S): 20

CC(C)(C)NC(=O)O[C@@H]1CC[C@H](c2cc(Nc3ncccn3)n[nH]2)C1 [Example 4J, (1R,3S)-3-(3-(pyrimidin-2-ylamino)-1H-pyrazol-5-yl)cyclopentyl tert-butylcarbamate]
pIC50 [1]: 6.49
FS SKOV-3/OVISE [1]: 3.8
FS p-H3/OVISE [1]: 1.1
CDK2 OVISE IC50 fold change in potency versus Comparator D [1]: 12 fold
CDK2 OVISE IC50 fold change in potency versus Comparator E [1]: 0.5 fold
pKi [2]: 7.96
FS CDK4/CDK2 increased over Comparator D, (+) sign ([2]; Table R): (+)
FS CDK4/CDK2 ([2]; Table R): 4.4
FS CDK4/CDK2 ([2]; Table S): 4.4
pKi [3]: 6.77
FS CDK1/CDK2 increased over Comparator D, (+) sign ([3]; Table R): (+)
FS CDK1/CDK2 ([3]; Table R): 68
FS CDK1/CDK2 increased over Comparator E, (+) sign ([3]; Table S): (+)
FS CDK1/CDK2 ([3]; Table S): 68
pIC50 (HCT116 cells): 6.44
pKi ([4]; Table O): 8.60
FS CDK1/CDK2 ([4]; Table O): 68
FS CDK4/CDK2 ([4]; Table O): 4.4
pKi ([4]; Table R): 8.60
CDK2 Ki fold change in potency versus Comparator D ([4]; Table R): 1.1 fold
pKi ([4]; Table S): 8.60
CDK2 Ki fold change in potency versus Comparator E ([4]; Table S): 0.2 fold
pIC50 (SKOV-3 (ATCC HTB-77); SK-OV-3, Table O): 5.92
pIC50 (SKOV-3 (ATCC HTB-77); SK-OV-3, Table R): 5.92
pIC50 (SKOV-3 (ATCC HTB-77); SK-OV-3, Table S): 5.92
FS SKOV-3/OVISE increased over Comparator D, (+) sign (SKOV-3 (ATCC HTB-77); Table R): (+)
FS SKOV-3/OVISE (SKOV-3 (ATCC HTB-77); Table R): 3.8
FS SKOV-3/OVISE (SKOV-3 (ATCC HTB-77); Table S): 3.8
